Measured values from patent US10624875B2, “Methods and compositions for treating schizophrenia” (The Johns Hopkins University, priority 2012, dated 2020).
Where “and” joins values, the source holds several entries; their conditions need not be identical. Identical values can stand only once.

What was measured:
aMCI subjects [1] = assay: Buschke Selective Reminding Test - Delayed Recall; assay type: in vivo, human; conditions: 125 mg twice a day for two weeks
Description: (§1) A within-subjects trial of 8 weeks duration, involving 17 amnestic MCI (aMCI) subjects and 17 age-matched controls with a low dose treatment of levetiracetam is conducted. During the course of the study, each aMCI subject receives both drug and placebo treatments separately in two periods of two weeks each, with the order of treatments among different aMCI subjects counterbalanced (see FIG. 7). Age-matched control subjects treated with placebo serve as a further control. Cognitive testing and fMRI imaging data are obtained from the subjects after each two week period of drug/placebo treatment.
All participants undergo neuropsychological evaluation at the time of assessment for treatment efficacy (Visits 1 and 2), as well as at the Baseline Visit. The evaluation occurs outside of the scanner and includes the Buschke Selective Reminding Test (Buschke and Fuld, 1974) and the Verbal Paired Associates subtest, the Logical Memory subtest, the Visual Reproduction subtest of the Wechsler Memory Scale-Revised (WMS-R) (Wechsler, 1997), and the Benton Visual Retention Test, as these tasks are particularly sensitive to medial temporal lobe function and early memory problems (Marquis et al., 2002 and Masur et al., 1994). […]

aged-impaired (AI) rats = assay: eight-arm Radial Arm Maze (RAM) task with one-hour delay, spatial memory retention; assay type: in vivo, rat
Description: The effects of levetiracetam on the spatial memory retention of aged-impaired (AI) rats were assessed in a Radial Arm Maze (RAM) behavioral task using vehicle control and five different dosage levels of levetiracetam (1.25 mg/kg/day, 2.5 mg/kg/day, 5 mg/kg/day, 10 mg/kg/day and 20 mg/kg/day). RAM behavioral tasks were preformed on ten AI rats. All six treatment conditions were tested on all ten rats, as described above for the MWM test. The RAM apparatus used consisted of eight equidistantly-spaced arms. An elevated maze arm (7 cm width×75 cm length) projected from each facet of an octagonal center platform (30 cm diameter, 51.5 cm height). Clear side walls on the arms were 10 cm high and were angled at 65° to form a trough. A food well (4 cm diameter, 2 cm deep) was located at the distal end of each arm. Froot Loops™ (Kellogg Company) were used as rewards. Blocks constructed of Plexiglas™ (30 cm height×12 cm width) could be positioned to prevent entry to any arm. Numerous extra maze cues surrounding the apparatus were also provided. The AI rats were initially subjected to a pre-training test (Chappell et al. Neuropharmacology 37: 481-487, 1998). The pre-training test consisted of a habituation phase (4 days), a training phase on the standard win-shift task (18 days) and another training phase (14 days) in which a brief delay was imposed between presentation of a subset of arms designated by the experimenter (e.g., 5 arms available and 3 arms blocked) and completion of the eight-arm win-shift task (i.e., with all eight arms available). In the habituation phase, rats were familiarized to the maze for an 8-minute session on four consecutive days. In each of these sessions food rewards were scattered on the RAM, initially on the center platform and arms and then progressively confined to the arms. After this habituation phase, a standard training protocol was used, in which a food pellet was located at the end of each arm. Rats received one trial each day for 18 days. Each daily trial terminated when all eight food pellets had been obtained or when either 16 choices were made or 15 minutes had elapsed. After completion of this training phase, a second training phase was carried out in which the memory demand was increased by imposing a brief delay during the trial. At the beginning of each trial, three arms of the eight-arm maze were blocked. Rats were allowed to obtain food on the five arms to which access was permitted during this initial ‘information phase’ of the trial. Rats were then removed from the maze for 60 seconds, during which time the barriers on the maze were removed, thus allowing access to all eight arms. Rats were then placed back onto the center platform and allowed to obtain the remaining food rewards during this ‘retention test’ phase of the trial. The identity and configuration of the blocked arms varied across trials. The number of “errors” the AI rats made during the retention test phase was tracked. An error occurred in the trial if the rats entered an arm from which food had already been retrieved in the pre-delay component of the trial, or if it re-visited an arm in the post-delay session that had already been visited. After completion of the pre-training test, rats were subjected to trials with more extended delay intervals, i.e., a one-hour delay, between the information phase (presentation with some blocked arms) and the retention test (presentation of all arms). […]

aMCI subjects [2] = assay: Verbal Paired Associates Test - Recognition; assay type: in vivo, human; conditions: 125 mg twice a day for two weeks
Description: as §1
All participants undergo neuropsychological evaluation at the time of assessment for treatment efficacy (Visits 1 and 2), as well as at the Baseline Visit. […]
As described above, the drug treatment period is the two weeks preceding Visit 1 or 2 (with the two week period preceding the other Visit being the placebo phase). For the subjects receiving the drug treatment, half a scored 250 mg tablet of levetiracetam is used to achieve a dose of […], which is approximately 3.6 mg/kg/day (assuming an average adult human weight of 70 kg).

[3] = drug on its own (levetiracetam i.p., valproate subcutaneous)

SMILES: CC[C@@H](C(N)=O)N1CCCC1=O [levetiracetam, (2S)-2-(2-oxopyrrolidin-1-yl) butanamide]
- performance in Buschke Selective Reminding Test - Delayed Recall (aMCI subjects [1]): fail to rescue performance
- performance in the radial maze task (aged-impaired (AI) rats; 20 mg/kg): fails to improve the performance
- dose effective in reducing the number of errors (aged-impaired (AI) rats; [3]): 5 to 10 mg/kg
- dose not effective in reducing the number of errors (aged-impaired (AI) rats; [3]): 1.25 mg/kg and 2.5 mg/kg
- performance in Verbal Paired Associates Test - Recognition (aMCI subjects [2]): fail to rescue performance
